Experimental findings from US9423343B2, “Membrane potential change detection device and membrane potential change detection method” (HAMAMATSU PHOTONICS K.K., priority 2010, dated 2016) are described below.

This test has as its system CHO cells. The test is described as follows: Reflection interference measurement of membrane potential change (depolarization) after KCl dispensation, Measurement Example 1. Particulars: for change rate of average luminosity at the peak: peak slightly over five minutes, FIG. 11. It is filed as cell-based, Chinese hamster. The text has this: The functions and operation of the processing unit 20 will be described further referring to the flowchart of FIG. 7. First, the reflection interference image of adhesion faces of cells 101 is obtained by the reflection interference detection camera 110 (step S101, corresponding to “reflection interference imaging step” in the scope of claims). The amplitude of interfering light differs according to the distance of each cell 101 adhering onto the substrate as the bottom surface of the vessel 102 from the substrate as the bottom surface of the vessel 102, and the reflection interference image is taken as a contrast of bright and dark patterns. Next, correction is made for shading of reflected light in the field of the reflection interference image. In addition, an offset correction for background part is carried out in each time unit, so as to prevent temporal variation in value of the background without the cells 101. Through these image arithmetic corrections, we can obtain the reflection interference image with little spatial and temporal variation.
The reflection interference detection camera 110 acquires reflection interference images, for example, at intervals of one second. The intervals of acquisition of reflection interference images are preferably suitably controlled according to a rate of change of membrane potential of the cells 101. After a fixed time from a start of acquisition of image by the reflection interference detection camera 110, a chemical dispensing operation of the dispenser 117 is performed to dispense an intended chemical in an intended concentration to the solution in which the cells 101 are immersed.
The analysis unit 202 calculates a parameter about adhesion between each cell 101 and the transparent member 102a using the reflection interference images obtained intermittently in this manner (step S102, corresponding to “analysis step” in the scope of claims). In the present embodiment, the analysis unit calculates a “change rate of average luminosity” as the parameter to evaluate the change of membrane potential of cell 101 (corresponding to “parameter about adhesion” in the scope of claims).
When the image reception unit 201 receives the reflection interference images sequentially output from the reflection interference detection camera 110, the analysis unit 202 calculates the average luminosity I(t) of the measurement region in each of the reflection interference images and calculates a change rate dI relative to an average luminosity of the measurement region acquired in advance before chemical dispensation (which will be referred to hereinafter as average luminosity I(base) as a base”) (step S103, corresponding to “analysis step” in the scope of claims). […] The change rate dI is calculated by the formula below. […]
The analysis unit 202 detects a change of membrane potential of the cells 101 on the basis of the change rate dI calculated by the above formula. Namely, when a predetermined change rate dI is calculated, the analysis unit 202 makes such a valuation that there is some change detected in membrane potential in the cells 101. The analysis unit 202 may output a plot along time axis of the change rate dI (%) relative to the average luminosity before chemical dispensation calculated by the above formula, e.g., graphs as shown in (A) of FIGS. 8 and (B) of FIG. 8. […]

In the case of `[Cl-].[K+]` [KCl, potassium chloride], the “change rate of average luminosity at the peak” value (“change rate” below) (KCl concentration 6.25 mM) is “+8%”, the “change rate” value (KCl concentration 25 mM) is given as “+35%”, the “change rate” value (KCl concentration 50 mM) is reported as “+55%” and the “change rate” value (KCl concentration 100 mM) is reported as “+95%”. In addition, for the setting “image at 5 minutes after dispensation, FIG. 9”, the “change of reflection interference image after dispensation” value is on record as “the CHO cells departed from the transparent member on which the cells were laid, to make the reflection interference image brighter”.
